Laboratory results as given in patent US20100267755A1, “PYRIMIDINE DERIVATIVES” (GLAXO GROUP LIMITED, priority 2001, published 2010).

Biological target: T1, microsomal h-COX2 (Homo sapiens, UniProt P35354)
T1 construct: made in house; host or cells: baculovirus infected SF9 cells
T1 sequence (P35354 18-604): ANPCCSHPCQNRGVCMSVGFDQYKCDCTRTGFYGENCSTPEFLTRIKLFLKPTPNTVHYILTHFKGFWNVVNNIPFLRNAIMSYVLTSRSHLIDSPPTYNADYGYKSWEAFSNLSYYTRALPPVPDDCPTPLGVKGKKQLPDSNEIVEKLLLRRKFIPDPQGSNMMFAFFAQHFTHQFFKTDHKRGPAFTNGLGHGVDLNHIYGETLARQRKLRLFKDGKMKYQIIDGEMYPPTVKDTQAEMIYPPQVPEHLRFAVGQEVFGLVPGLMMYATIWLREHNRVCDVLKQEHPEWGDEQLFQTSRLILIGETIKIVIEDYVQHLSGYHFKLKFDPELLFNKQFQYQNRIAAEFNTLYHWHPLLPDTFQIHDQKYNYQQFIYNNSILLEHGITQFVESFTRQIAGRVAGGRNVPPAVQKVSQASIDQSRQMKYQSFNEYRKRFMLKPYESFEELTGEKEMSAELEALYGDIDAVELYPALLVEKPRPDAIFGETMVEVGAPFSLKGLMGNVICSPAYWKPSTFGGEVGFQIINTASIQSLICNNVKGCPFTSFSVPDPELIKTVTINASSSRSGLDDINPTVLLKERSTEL
Assay: Inhibitory activity against microsomal h-COX2 (PGE2 by EIA)
Format: biochemical
Details: for IC50: microsomal preparation from baculovirus infected SF9 cells, 0.1 μM arachidonic acid, read-out: COX-2 IC50; for inhibition at 10 µM: read-out: COX-2% inhibition
Procedure: Inhibitory activity against microsomal h-COX2 was assessed against a microsomal preparation from baculovirus infected SF9 cells. An aliquot of microsomal preparation was thawed slowly on ice and a 1/40,000 dilution prepared from it into the assay buffer (sterile water, degassed with argon containing 100 mM HEPES (pH 7.4), 10 mM EDTA (pH7.4), 1 mM phenol, 1 mM reduced glutathione, 20 mg/ml gelatin and 0.001 mM Hematin). Once diluted the enzyme solution was then sonicated for 5 seconds (Branson sonicator, setting 4, 1 cm tip) to ensure a homogeneous suspension. […] Plates were then mixed and incubated at room temperature for 1 hour. Following the incubation period, 40 μl of 0.5 μM arachidonic acid was added to each well to give a final concentration of 0.1 μM. Plates were then mixed and incubated for exactly 10 minutes (room temperature) prior to addition of 25 μl 1M HCl (hydrochloric acid) to each well to stop the reaction. 25 μl of 1M NaOH (sodium hydroxide) was then added to each well to neutralise the solution prior to determination of PGE2 levels by enzyme immunoassay (EIA).

| Compound | IC50 [µM] | inhibition at 10 µM [%] |
| --- | --- | --- |
| Cc1c(-c2ccc(S(C)(=O)=O)cc2)nc(NCC(C)C)nc1C(F)(F)F [Example 2, N-isobutyl-5-methyl-4-[4-(methylsulfonyl)phenyl]-6-(trifluoromethyl)pyrimidin-2-amine] | 6.6 | – |
| Cc1c(-c2ccc(S(C)(=O)=O)cc2)nc(NC2CCCCC2)nc1C(F)(F)F [Example 6] | 2.3 | – |
| Cc1c(-c2ccc(S(C)(=O)=O)cc2)nc(NCC2CCOCC2)nc1C(F)(F)F [Example 7] | > 100 | – |
| CCCNc1nc(-c2ccc(S(C)(=O)=O)cc2)c(C)c(C(F)(F)F)n1 [Example 8] | 26.7 | – |
| Cc1c(-c2ccc(S(C)(=O)=O)cc2)nc(NCCc2ccccn2)nc1C(F)(F)F [Example 10] | 71.2 | – |
| CCCCNc1nc(-c2ccc(S(C)(=O)=O)cc2)c(C)c(C(F)(F)F)n1 [Example 11] | 6.3 | 43 |

The next lines start with the values.

| IC50 [µM] | inhibition at 10 µM [%] | Compound |
| --- | --- | --- |
| 1.3 | 61 | Cc1c(-c2ccc(S(C)(=O)=O)cc2)nc(NCc2ccccc2)nc1C(F)(F)F [Example 1, N-benzyl-5-methyl-4-[4-(methylsulfonyl)phenyl]-6-(trifluoromethyl)pyrimidin-2-amine] |
| 2.5 | – | Cc1c(-c2ccc(S(C)(=O)=O)cc2)nc(NCc2ccccc2O)nc1C(F)(F)F [Example 3] |
| 0.56 | – | Cc1c(-c2ccc(S(C)(=O)=O)cc2)nc(NCc2cccs2)nc1C(F)(F)F [Example 4] |
| 15.3 | – | Cc1ccc(CNc2nc(-c3ccc(S(C)(=O)=O)cc3)c(C)c(C(F)(F)F)n2)cc1 [Example 5] |
| > 98.6 | – | Cc1c(-c2ccc(S(C)(=O)=O)cc2)nc(NCc2ccccn2)nc1C(F)(F)F [Example 9] |
